# Test results taken from ChEMBL document CHEMBL1132525, “Indolocarbazole poisons of human topoisomerase I: regioisomeric analogues of ED-110” (Bioorg Med Chem Lett, 1999).
# pIC50: −log10 of the molar value.
# Key:
# DU-145 [1] = assay: In vitro antitumor activity against human solid tumor prostate cell line DU-145; type: functional, cell-based
# HT-29 [2] = assay: In vitro antitumor activity against human solid tumor colon cell line HT-29; type: functional, cell-based
# OVCAR-3 [3] = assay: In vitro antitumor activity against human solid tumor ovarian cell line OVCAR-3; type: functional, cell-based
# DNA topoisomerase 1 = target: T1, DNA topoisomerase 1 (Homo sapiens, UniProt P11387); assay: Concentration required to inhibit human DNA topoisomerase I (Topo I)
# T1 sequence (P11387 whole entry): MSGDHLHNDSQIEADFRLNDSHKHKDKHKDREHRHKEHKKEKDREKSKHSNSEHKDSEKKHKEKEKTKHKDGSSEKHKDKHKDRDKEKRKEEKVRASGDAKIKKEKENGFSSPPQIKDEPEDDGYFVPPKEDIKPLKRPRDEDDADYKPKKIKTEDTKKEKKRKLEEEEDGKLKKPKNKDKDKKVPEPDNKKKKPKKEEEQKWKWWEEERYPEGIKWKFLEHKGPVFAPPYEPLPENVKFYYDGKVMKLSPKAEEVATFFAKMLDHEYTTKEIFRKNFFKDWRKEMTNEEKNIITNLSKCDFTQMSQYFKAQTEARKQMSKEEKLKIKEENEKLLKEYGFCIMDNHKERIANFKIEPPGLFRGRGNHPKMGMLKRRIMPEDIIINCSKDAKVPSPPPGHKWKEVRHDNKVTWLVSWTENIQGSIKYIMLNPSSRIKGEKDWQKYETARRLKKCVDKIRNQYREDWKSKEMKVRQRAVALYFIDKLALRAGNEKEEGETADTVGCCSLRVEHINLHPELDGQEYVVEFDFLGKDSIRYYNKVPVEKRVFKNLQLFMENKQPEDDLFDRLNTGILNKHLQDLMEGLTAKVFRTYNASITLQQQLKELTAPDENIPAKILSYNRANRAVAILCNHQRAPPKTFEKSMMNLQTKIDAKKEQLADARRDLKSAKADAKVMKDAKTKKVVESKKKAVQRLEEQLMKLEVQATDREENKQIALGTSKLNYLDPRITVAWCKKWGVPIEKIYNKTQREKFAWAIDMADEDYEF
# OVCAR-3 [4] = assay: In vitro antitumor activity against human solid tumor ovarian cell line OVCAR-3; No active; type: functional, cell-based
# DU-145 [5] = assay: In vitro antitumor activity against human solid tumor prostate cell line DU-145; No active; type: functional, cell-based
# HT-29 [6] = assay: In vitro antitumor activity against human solid tumor colon cell line HT-29; No active; type: functional, cell-based
structure (smiles),measurement,setting,value
O=C1NC(=O)c2c1c1c3cccc(O)c3[nH]c1c1c2c2cccc(O)c2n1C1OC(CO)C(O)C(O)C1O (centres undefined),pIC50,DU-145 [1],5.64
same,pIC50,HT-29 [2],< 5.00
same,pIC50,OVCAR-3 [3],6.04
same,pIC50,DNA topoisomerase 1,4.89
O=C1NC(=O)c2c1c1c3ccc(O)cc3[nH]c1c1c2c2ccc(O)cc2n1C1OC(CO)C(O)C(O)C1O (centres undefined),pIC50,DU-145 [1],6.92
same,pIC50,HT-29 [2],5.01
same,pIC50,OVCAR-3 [3],6.72
same,pIC50,DNA topoisomerase 1,5.64
O=C1NC(=O)C(c2cn(C3OC(CO)C(O)C(O)C3O)c3c(O)cccc23)=C1c1c[nH]c2c(O)cccc12 (centres undefined),IC50,OVCAR-3 [4],Not Active
same,IC50,DU-145 [5],Not Active
same,IC50,HT-29 [6],Not Active
O=C1NC(=O)c2c1c1c([nH]c3cccc(O)c31)c1c2c2c(O)cccc2n1C1OC(CO)C(O)C(O)C1O (centres undefined),pIC50,DU-145 [1],6.02
same,pIC50,HT-29 [2],5.89
same,pIC50,OVCAR-3 [3],6.36
same,pIC50,DNA topoisomerase 1,4.44
O=C1NC(=O)c2c1c1c3cc(O)ccc3[nH]c1c1c2c2cc(O)ccc2n1C1OC(CO)C(O)C(O)C1O (centres undefined),pIC50,DU-145 [1],7.17
same,pIC50,HT-29 [2],6.08
same,pIC50,OVCAR-3 [3],6.72
same,pIC50,DNA topoisomerase 1,5.82
